This note sets out measurements from US20140296216A1, “PYRIMIDO[4,5-D]PYRIMIDINYL COMPOUNDS, PHARMACEUTICAL COMPOSITIONS AND USES THEREOF” (GUANGZHOU INSTITUTE OF BIOMEDICINE AND HEALTH, CHINESE …, priority 2011, published 2014).

Test [1] concerns the target EGFRWT (Homo sapiens, UniProt P00533). As to the kind of experiment: In vitro enzymatic activity assay (Z'-LYTE), wild type EGFR. The test is classed as biochemical. To be noted: Z'-LYTE FRET peptide assay; read-out: EGFRWT kinase activity (IC50). The text has this:
(§1) In vitro enzymatic activity assay: using Z′-LYTE™ technology (detect fluorescence, coupled-enzyme format, based on the differential sensitivity of phosphorylated and non-phosphorylated peptides to proteolytic cleavage), based on FRET, using Z′ LYTE™ FRET peptide substrate, detect the activity of compounds against enzymatic. […] After one hour, site specific protease which can recognize and cleaves non-phosphorylated FRET-peptide. After another hour, using an excitation wavelength of 400 nm excites, then detect the […] at 445 nm and 520 nm.

Test [2] deals with T1, EGFR T790M kinase (Homo sapiens, UniProt P00533, T790M).
T1 construct: purchased invitrogen PV4803
The experiment in a line: In vitro enzymatic activity assay (Z'-LYTE), EGFR T790M. The test is classed as biochemical. To be noted: Z'-LYTE FRET peptide assay; read-out: EGFRT790M kinase activity (IC50).
From the text: as §1

For test [3], the target named is EGFRL858R (Homo sapiens, UniProt P00533, L858R). As to the kind of experiment: In vitro enzymatic activity assay (Z'-LYTE), EGFR L858R. The test is classed as biochemical. To be noted: Z'-LYTE FRET peptide assay; read-out: EGFRL858R kinase activity (IC50).
From the text: as §1

The target in test [4] is EGFRL861Q (Homo sapiens, UniProt P00533, L861Q). The experiment in a line: In vitro enzymatic activity assay (Z'-LYTE), EGFR L861Q. Particulars: Z'-LYTE FRET peptide assay; read-out: EGFRL861Q kinase activity (IC50). The test is classed as biochemical.
From the text: as §1

In test [5] the target is EGFRL858R + T790M (Homo sapiens, UniProt P00533, L858R/T790M). As to the kind of experiment: In vitro enzymatic activity assay (Z'-LYTE), EGFR L858R + T790M. The test is classed as biochemical. To be noted: Z'-LYTE FRET peptide assay; read-out: EGFRL858R + T790M kinase activity (IC50).
From the text: as §1

Test [6] relates to H1975 (lung cancer cells, EGFR L858R&T790M). The experiment in a line: Cell proliferation by MTT, H1975. The format is cell-based. To be noted: Homo sapiens, NCI-H1975, read-out: H1975 50% inhibitory concentration (IC50), 72 h.
The test system of test [7] is HCC827 (lung cancer cells, EGFR E746-A750 deletion). The experiment in a line: Cell proliferation by MTT, HCC827. The format is cell-based. Particulars: Homo sapiens, HCC827, read-out: HCC827 50% inhibitory concentration (IC50), 72 h.
Test [8] deals with A431 (Human epidermal carcinoma, EGFR high expression). As to the kind of experiment: Cell proliferation by MTT, A431. Particulars: A-431, read-out: A431 50% inhibitory concentration (IC50), 72 h. The format is cell-based.
In test [9] the test system is NCI-H820 (lung cancer cells). The experiment in a line: Cell proliferation by MTT, NCI-H820. The test is classed as cell-based. Particulars: NCI-H820, read-out: NCI-H820 50% inhibitory concentration (IC50), 72 h.

pIC50: −log10 of the molar value.

T1 sequence (P00533 25-1210 T790M): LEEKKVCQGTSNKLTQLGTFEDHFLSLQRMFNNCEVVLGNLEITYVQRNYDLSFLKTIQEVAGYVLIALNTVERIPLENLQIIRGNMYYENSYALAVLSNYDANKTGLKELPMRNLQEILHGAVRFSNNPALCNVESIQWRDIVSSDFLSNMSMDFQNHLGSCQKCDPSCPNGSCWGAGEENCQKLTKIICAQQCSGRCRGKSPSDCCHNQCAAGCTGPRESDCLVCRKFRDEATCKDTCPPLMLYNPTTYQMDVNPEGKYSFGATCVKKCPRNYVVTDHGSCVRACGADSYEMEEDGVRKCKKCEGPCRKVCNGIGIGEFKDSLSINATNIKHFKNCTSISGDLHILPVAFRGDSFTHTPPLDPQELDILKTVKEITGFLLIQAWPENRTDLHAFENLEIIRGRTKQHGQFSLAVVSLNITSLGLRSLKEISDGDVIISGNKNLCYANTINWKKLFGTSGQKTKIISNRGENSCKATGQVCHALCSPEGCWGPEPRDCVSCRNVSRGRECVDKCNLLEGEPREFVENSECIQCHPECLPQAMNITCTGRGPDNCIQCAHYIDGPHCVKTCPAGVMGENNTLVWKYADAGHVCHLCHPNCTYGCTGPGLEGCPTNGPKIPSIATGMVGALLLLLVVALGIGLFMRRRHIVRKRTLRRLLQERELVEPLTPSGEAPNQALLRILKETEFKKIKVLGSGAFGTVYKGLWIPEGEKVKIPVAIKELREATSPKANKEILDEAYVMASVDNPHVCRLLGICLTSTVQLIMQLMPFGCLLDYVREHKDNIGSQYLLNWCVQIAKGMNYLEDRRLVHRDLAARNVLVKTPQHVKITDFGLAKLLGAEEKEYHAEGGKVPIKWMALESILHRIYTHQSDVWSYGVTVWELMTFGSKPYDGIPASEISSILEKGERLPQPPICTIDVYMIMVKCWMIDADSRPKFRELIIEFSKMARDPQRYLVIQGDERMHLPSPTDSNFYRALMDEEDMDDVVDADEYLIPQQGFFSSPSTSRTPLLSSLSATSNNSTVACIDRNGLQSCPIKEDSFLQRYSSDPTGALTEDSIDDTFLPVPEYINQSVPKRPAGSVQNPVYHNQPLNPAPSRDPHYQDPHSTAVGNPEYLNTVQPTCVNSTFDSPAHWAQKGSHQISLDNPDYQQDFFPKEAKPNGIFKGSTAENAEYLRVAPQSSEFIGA
Chain of EGFRL858R (P00533 25-1210 L858R): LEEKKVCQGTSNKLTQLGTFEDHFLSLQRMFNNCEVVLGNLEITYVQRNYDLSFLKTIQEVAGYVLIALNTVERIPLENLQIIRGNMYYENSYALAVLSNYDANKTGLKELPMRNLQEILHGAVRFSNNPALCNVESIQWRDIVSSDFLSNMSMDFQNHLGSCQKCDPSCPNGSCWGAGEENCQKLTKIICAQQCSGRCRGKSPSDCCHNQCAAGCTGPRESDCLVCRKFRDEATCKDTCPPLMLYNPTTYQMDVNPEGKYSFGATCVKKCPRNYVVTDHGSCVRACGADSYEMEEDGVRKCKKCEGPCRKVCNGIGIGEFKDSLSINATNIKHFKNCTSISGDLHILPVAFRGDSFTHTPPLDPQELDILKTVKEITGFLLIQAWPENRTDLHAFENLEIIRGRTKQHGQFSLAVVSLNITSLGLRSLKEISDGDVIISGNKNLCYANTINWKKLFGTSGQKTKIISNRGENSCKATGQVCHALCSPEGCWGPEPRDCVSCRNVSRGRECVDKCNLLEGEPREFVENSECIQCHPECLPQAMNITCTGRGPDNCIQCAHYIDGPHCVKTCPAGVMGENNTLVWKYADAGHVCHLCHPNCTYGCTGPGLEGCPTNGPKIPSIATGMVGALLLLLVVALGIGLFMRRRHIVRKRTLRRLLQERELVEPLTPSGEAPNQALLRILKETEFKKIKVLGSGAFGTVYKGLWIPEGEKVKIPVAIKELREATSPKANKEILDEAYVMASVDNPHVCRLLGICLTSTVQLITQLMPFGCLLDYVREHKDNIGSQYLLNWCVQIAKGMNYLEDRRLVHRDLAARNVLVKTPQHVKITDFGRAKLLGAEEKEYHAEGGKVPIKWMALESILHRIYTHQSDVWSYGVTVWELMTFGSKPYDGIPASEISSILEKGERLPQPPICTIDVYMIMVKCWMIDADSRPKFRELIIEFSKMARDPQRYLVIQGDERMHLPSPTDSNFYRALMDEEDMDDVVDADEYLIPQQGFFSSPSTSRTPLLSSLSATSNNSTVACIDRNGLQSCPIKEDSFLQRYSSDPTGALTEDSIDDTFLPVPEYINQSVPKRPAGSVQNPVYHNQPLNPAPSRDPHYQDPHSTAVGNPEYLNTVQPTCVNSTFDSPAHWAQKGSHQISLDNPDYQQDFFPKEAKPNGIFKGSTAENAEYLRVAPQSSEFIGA
Chain of EGFRL861Q (P00533 25-1210 L861Q): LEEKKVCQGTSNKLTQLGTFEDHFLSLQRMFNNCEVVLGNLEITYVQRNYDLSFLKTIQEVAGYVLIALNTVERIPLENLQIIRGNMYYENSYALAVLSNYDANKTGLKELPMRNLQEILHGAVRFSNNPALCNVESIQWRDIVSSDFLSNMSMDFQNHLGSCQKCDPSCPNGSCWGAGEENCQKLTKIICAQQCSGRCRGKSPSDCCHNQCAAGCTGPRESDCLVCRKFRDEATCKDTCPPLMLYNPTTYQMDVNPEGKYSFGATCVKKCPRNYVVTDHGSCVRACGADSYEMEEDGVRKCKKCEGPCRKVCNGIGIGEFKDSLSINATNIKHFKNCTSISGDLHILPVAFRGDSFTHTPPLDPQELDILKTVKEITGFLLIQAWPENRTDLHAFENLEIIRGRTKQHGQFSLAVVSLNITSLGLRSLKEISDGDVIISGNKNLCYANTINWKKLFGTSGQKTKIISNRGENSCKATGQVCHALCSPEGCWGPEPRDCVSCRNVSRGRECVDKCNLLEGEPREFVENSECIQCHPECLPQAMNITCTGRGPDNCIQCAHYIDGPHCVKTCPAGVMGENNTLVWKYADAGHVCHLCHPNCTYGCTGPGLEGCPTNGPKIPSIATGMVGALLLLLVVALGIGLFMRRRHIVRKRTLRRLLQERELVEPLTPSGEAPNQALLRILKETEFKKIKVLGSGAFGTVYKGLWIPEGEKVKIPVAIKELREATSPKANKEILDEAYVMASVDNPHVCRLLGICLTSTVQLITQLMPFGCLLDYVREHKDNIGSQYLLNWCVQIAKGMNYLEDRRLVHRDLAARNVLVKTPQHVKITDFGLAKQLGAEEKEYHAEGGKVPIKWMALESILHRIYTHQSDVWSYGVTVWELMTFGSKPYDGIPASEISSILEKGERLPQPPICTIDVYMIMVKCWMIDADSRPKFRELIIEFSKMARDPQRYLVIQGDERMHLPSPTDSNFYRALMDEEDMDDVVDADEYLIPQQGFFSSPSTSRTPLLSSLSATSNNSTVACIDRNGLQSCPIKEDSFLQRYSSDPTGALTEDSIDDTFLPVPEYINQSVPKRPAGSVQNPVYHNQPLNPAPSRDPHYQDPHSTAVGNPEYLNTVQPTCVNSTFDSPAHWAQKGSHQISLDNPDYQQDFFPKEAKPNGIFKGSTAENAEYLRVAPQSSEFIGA
Chain of EGFRWT (P00533 25-1210): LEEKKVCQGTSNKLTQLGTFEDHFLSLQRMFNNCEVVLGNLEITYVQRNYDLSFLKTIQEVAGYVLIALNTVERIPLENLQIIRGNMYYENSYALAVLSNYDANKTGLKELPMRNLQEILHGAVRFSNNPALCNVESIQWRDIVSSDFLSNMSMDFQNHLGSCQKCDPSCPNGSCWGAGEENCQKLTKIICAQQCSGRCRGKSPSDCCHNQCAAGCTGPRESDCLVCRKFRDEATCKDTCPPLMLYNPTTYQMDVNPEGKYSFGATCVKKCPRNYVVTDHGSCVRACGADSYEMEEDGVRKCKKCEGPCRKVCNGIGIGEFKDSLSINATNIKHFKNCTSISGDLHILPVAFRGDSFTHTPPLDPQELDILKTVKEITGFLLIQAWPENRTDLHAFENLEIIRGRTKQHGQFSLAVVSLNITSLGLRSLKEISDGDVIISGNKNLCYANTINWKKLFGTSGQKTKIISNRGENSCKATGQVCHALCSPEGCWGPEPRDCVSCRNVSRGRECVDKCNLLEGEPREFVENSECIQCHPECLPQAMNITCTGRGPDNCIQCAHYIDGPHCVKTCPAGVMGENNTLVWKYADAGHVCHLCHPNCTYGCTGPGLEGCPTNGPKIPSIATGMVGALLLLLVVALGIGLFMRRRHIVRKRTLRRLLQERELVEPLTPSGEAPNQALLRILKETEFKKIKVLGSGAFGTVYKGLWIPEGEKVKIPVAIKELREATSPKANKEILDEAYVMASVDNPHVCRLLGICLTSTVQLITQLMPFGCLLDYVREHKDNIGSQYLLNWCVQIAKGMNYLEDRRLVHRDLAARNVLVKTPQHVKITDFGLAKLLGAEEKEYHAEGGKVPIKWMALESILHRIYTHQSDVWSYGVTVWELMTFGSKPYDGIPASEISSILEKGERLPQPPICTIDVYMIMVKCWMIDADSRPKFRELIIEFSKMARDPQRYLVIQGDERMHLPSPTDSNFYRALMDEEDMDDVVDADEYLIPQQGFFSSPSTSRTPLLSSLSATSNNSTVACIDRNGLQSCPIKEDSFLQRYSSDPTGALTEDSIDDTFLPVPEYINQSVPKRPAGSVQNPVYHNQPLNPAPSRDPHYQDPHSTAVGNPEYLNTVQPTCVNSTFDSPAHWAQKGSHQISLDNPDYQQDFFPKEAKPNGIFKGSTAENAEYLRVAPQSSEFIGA

Take `C=CC(=O)Nc1cccc(N2C(=O)N(c3cccc4ccccc34)Cc3cnc(Nc4ccc(N5CCN(C)CC5)cc4OC)nc32)c1` [C-EGF28, N-(3-(7-(2-methoxy-4-(4-methylpiperazin-1-yl)phenylamino)-3-(naphthalen-1-yl)-2-oxo-3,4-dihydropyrimido[4,5-d]pyrimidin-1(2H)-yl)phenyl)acrylamide]: the pIC50 was at least 8.00 in test [1]; at least 8.00 in [2]; at least 8.00 in [3]; at least 8.00 in test [4]; at least 8.00 in test [5]; 7.52 in test [6]. In addition, the pIC50 in test [7] was 8.22.

With `C=CC(=O)Nc1cccc(N2C(=O)N(C)Cc3cnc(Nc4ccc(OCCOC)cc4OC)nc32)c1` [C-EGF22, N-(3-(7-(2-methoxy-4-(2-methoxyethoxy)phenylamino)-3-methyl-2-oxo-3,4-dihydropyrimido[4,5-d]pyrimidin-1(2H)-yl)phenyl)acrylamide], the pIC50 is at least 8.00 in [1]; 7.00 to 8.00 in test [2]; at least 8.00 in [3]; at least 8.00 in test [4]; 7.00 to 8.00 in test [5]; 5.97 in test [6]. The figures for the pIC50 in test [7], in test [8] and in test [9] were 6.31, 4.60 and below 4.00, respectively.

Turning to `C=CC(=O)Nc1cccc(N2C(=O)N(C)Cc3cnc(Nc4ccc(N5CCCN(C)CC5)cc4OC)nc32)c1` [C-EGF17, N-(3-(7-(2-methoxy-4-(4-methyl-1,4-diazepan-1-yl)phenylamino)-3-methyl-2-oxo-3,4-dihydropyrimido[4,5-d]pyrimidin-1(2H)-yl)phenyl)acrylamide], the pIC50 in test [1] is at least 8.00; in test [2] it was at least 8.00; in test [3], at least 8.00; in test [4], at least 8.00; in test [5], at least 8.00; in [6] it was 6.15. For the same molecule, the pIC50 in test [7] is 7.21; in test [8], 4.95; in test [9], below 4.00.

Take `C=CC(=O)Nc1cccc(N2C(=O)N(C)Cc3cnc(Nc4ccc(N(C)C)cc4OC)nc32)c1` [C-EGF23, N-(3-(7-(4-(dimethylamino)-2-methoxyphenylamino)-3-methyl-2-oxo-3,4-dihydropyrimido[4,5-d]pyrimidin-1(2H)-yl)phenyl)acrylamide]: the pIC50 in test [1] was at least 8.00; in [2], 7.00 to 8.00; in test [3], at least 8.00; in test [4] it was at least 8.00; in [5], 7.00 to 8.00; in [6] it was 5.41. The pIC50 in test [7] is 6.21; in [8] it was 4.55; in test [9], below 4.00.

As for `C=CC(=O)Nc1cccc(N2C(=O)N(C)Cc3cnc(Nc4ccc(N5CCC(N(C)C)CC5)cc4)nc32)c1` [Compound X004, N-(3-(7-(4-(4-(dimethylamino)piperidin-1-yl)phenylamino)-3-methyl-2-oxo-3,4-dihydropyrimido[4,5-d]pyrimidin-1(2H)-yl)phenyl)acrylamide], the pIC50 in test [1] is at least 8.00; in [2], at least 8.00; in test [3] it was at least 8.00; in [4], at least 8.00; in test [5] it was at least 8.00; in [6] it was 6.58. For the same molecule, the pIC50 was 6.74 in test [7], below 4.00 in test [8] and below 4.00 in test [9].

Regarding `C=CC(=O)Nc1cccc(N2C(=O)N(C)Cc3cnc(Nc4ccc(N5CCSCC5)cc4)nc32)c1` [Compound X005, N-(3-(3-methyl-2-oxo-7-(4-thiomorpholinophenylamino)-3,4-dihydropyrimido[4,5-d]pyrimidin-1(2H)-yl)phenyl)acrylamide], the pIC50 in test [1] was at least 8.00; in test [2], at least 8.00; in test [3], at least 8.00; in test [4], at least 8.00; in test [5] it was at least 8.00; in test [6], 6.48. Also, the results for the pIC50 in test [7], in [8] and in test [9] were 7.64, 4.79 and below 4.00, respectively.

Turning to `C=CC(=O)Nc1cccc(N2C(=O)N(C)Cc3cnc(NC)nc32)c1` [C-EGF21, N-(3-(3-methyl-7-(methylamino)-2-oxo-3,4-dihydropyrimido[4,5-d]pyrimidin-1 (2H)-yl)phenyl)acrylamide], the pIC50 in test [1] is 6.00 to 7.00; in test [2] it was at most 5.00; in test [3], 6.00 to 7.00; in test [4], 5.00 to 6.00; in test [5] it was 6.00 to 7.00; in [6], 4.65. In addition, the results for the pIC50 in test [7], in test [8] and in test [9] were 4.92, below 4.00 and below 4.00, respectively.

In the case of `C=CC(=O)Nc1cccc(N2C(=O)N(C)Cc3cnc(Nc4ccc(N5CCC(N(C)C)CC5)cc4OC)nc32)c1` [C-EGF13, N-(3-(7-(4-(4-(dimethylamino)piperidin-1-yl)-2-methoxyphenylamino)-3-methyl-2-oxo-3,4-dihydropyrimido[4,5-d]pyrimidin-1(2H)-yl)phenyl)acrylamide], the pIC50 in test [1] is at least 8.00; in [2], at least 8.00; in [3], at least 8.00; in test [4], at least 8.00; in [5] it was at least 8.00; in [6], 6.25. The results for the pIC50 in test [7], in test [8] and in [9] were 6.70, below 4.00 and below 4.00, respectively.

For `C=CC(=O)Nc1cccc(N2C(=O)N(C)Cc3cnc(Nc4ccc(N5CCN(C(C)=O)CC5)cc4OC)nc32)c1` [C-EGF20, N-(3-(7-(4-(4-acetylpiperazin-1-yl)-2-methoxyphenylamino)-3-methyl-2-oxo-3,4-dihydropyrimido[4,5-d]pyrimidin-1(2H)-yl)phenyl)acrylamide], the pIC50 is at least 8.00 in [1]; at least 8.00 in test [2]; at least 8.00 in [3]; at least 8.00 in test [4]; at least 8.00 in [5]; 6.84 in test [6].

For the molecule `C=CC(=O)Nc1cccc(N2C(=O)N(C)Cc3cnc(Nc4ccc(N5CC[C@H](N(C)C)C5)cc4OC)nc32)c1` [C-EGF16, (S)—N-(3-(7-(4-(3-(dimethylamino)pyrrolidin-1-yl)-2-methoxyphenylamino)-3-methyl-2-oxo-3,4-dihydropyrimido[4,5-d]pyrimidin-1(2H)-yl)phenyl)acrylamide], the pIC50 in test [1] was at least 8.00; in test [2] it was 7.00 to 8.00; in [3] it was at least 8.00; in [4] it was at least 8.00; in [5], at least 8.00; in [6] it was 6.42.

Turning to `CCC(=O)Nc1cccc(N2C(=O)N(C)Cc3cnc(Nc4ccc(N5CCN(C)CC5)cc4OC)nc32)c1` [C-EGF34, N-(3-(7-(2-methoxy-4-(4-methylpiperazin-1-yl)phenylamino)-3-methyl-2-oxo-3,4-dihydropyrimido[4,5-d]pyrimidin-1(2H)-yl)phenyl)propionamide], the pIC50 in test [1] is 5.00 to 6.00; in test [2], 5.00 to 6.00; in test [3] it was 5.00 to 6.00; in test [4], 5.00 to 6.00; in [5], 5.00 to 6.00; in test [6], below 4.70. Besides, in test [8], the pIC50 is below 4.52.
